From patent US5945401A, “Peptide analogues of the 65KD isoform of human glutamic acid decarboxylase and uses thereof” (priority 1995, dated 1999) come the findings set out here.

The subject of test [1] is T cells from transgenic NOD mice expressing the human DQβ1*0302 gene. Description: Proliferation of T cells from transgenic NOD mice expressing human DQβ1*0302. Format: cell-based. The conditions noted are these: T cells from DQβ1*0302 transgenic NOD mice. The source says: Type 1 diabetes is associated with the HLA DQβ1*0302 allele (Nepom and Erlich, Ann. Rev. Immunol. 9:493-525, 1991). Transgenic NOD mice expressing the human DQβ1*0302 gene were constructed. […] Thus, these peptides are recognized by T cells in the context of DQβ1*0302 and are additional peptides suitable for use in the present invention.

For test [2], the system named is T cells from Type 1 diabetic patients and healthy controls. Put plainly: T cell proliferation assay with GAD 65 peptides (epitope mapping in patients, controls, co-twins). It counts as cell-based, human. Conditions: patients compared with controls. As to the method: FIG. 2 is a graph illustrating the T cell proliferative responses to peptides corresponding to various regions of GAD 65. Responses to peptides (5 μg/ml) in 5-7 Type 1 diabetic patients (solid bars) and 4-5 healthy controls (hatched bars) are expressed by the number of responders (y-axis). Background counts were normally between 600 and 3000 cpm, while positive wells had to exceed 1500 and 6000 cpm respective to background counts.
A major focus of research into autoimmunity is the identification of dominant epitopes on disease-associated auto-antigens recognized by autoreactive T cells. Immunodominant regions of the antigen GAD 65 have been identified in Type 1 diabetic patients (Lohmann et al., Lancet 343:1607-08, 1994; Atkinson et al., J Clin. Invest. 94:2125-2129, 1994). Within the subject invention, a detailed T cell epitope mapping of immunodominant regions in patients with Type 1 diabetes was performed. Two regions of GAD 65 were selected for decoding, representing the regions associated with the highest frequency of T cell responses in both Type 1 diabetics (amino acid residues 473-555 and 161-243) and control subjects (amino acid residues 161-243) (FIGS. 2 and 4). Nine diabetics who responded to region 473-555 were selected for further study of their response to 18 single peptides covering this region. […]

In the case of “GAD 65 native protein: 65 kD isoform of human glutamic acid decarboxylase, native protein”, the “proliferation of T cells” value in test [1] is “stimulated to proliferate”.

B1: region 161-243: region of GAD 65, residues 161-243, tested as overlapping peptides (peptide, UniProt Q05329 161-243, looked up, fragment)
chain: MHCQTTLKYAIKTGHPRYFNQLSTGLDMVGLAADWLTSTANTNMFTYEIAPVFVLLEYVTLKKMREIIGWPGGSGDGIFSPGG
modifications: tested as overlapping peptides
notes: region of GAD 65, residues 161-243, tested as overlapping peptides
Consider B1, for which the “recognition by T cells of Type 1 diabetic patients versus controls” value in test [2] is “recognized by T cells from both normals and IDDM patients”.
